Laboratory results reported in patent publication US8642644B2, “Ophthamological drugs” (Duke University, priority 2004, dated 2014).

Assays:
[1] = Activity against glaucoma (stated in words)
[2] = system: intraocular pressure (IOP); assay: Effects on intraocular pressure (IOP) after topical administration to normotensive Dutch-belted rabbits (Example 15); type: in vivo, rabbit; conditions: for Maximum reduction of IOP (absolute) / Maximum reduction of IOP (percent): once a day for three days
Source text: In order to study the utility of the compounds in the treatment of glaucoma, their effects on intraocular pressure (IOP) were investigated following administration to normotensive rabbits.
5-O-Ribitol [2,3-dichloro-4-(thiophene-2-carbonyl)]phenoxyacetate: 10% and 15% in a lanolin base.
5-O-Xylitol 4-(2-phenylacryloyl)cinnamate: 0.3% and 0.6% mixed equimolar with cysteine in solution.
11-Hydroxy-3,6,9-trioxaundecyl 4-(2-phenylacryloyl)cinnamate: 0.3% and 0.6% mixed equimolar with cysteine in solution.
Eyedrops administered topically to male Dutch-belted rabbits (3-5 kg). IOP determinations made with pneumatonometer (Medtronic Solan, Jacksonville, Fla.) as the average of three measurements per eye at each timepoint. Prior to IOP determination and drug administration, eyes were topically anesthetized with proparacaine hydrochloride, 0.5% (Bausch and Lomb, Inc, Tampa, Fla.).
5-O-Ribitol [2,3-dichloro-4-(thiophene-2-carbonyl)]phenoxyacetate: Eyedrops containing the compound were administered once a day for three days. The contralateral eye was administered lanolin base. IOP was assessed in the morning and afternoon for seven days.
5-O-Xylitol 4-(2-phenylacryloyl)cinnamate: Eyedrops containing the compound were administered twice daily for 7 days. The contralateral eye was left untreated to serve as a control. IOP was assessed concurrently with drug administration.
5-O-{(9α,11α,15R)-15-[2-Benzo[b]thiophen-2-yl]-16,17,18,19,20-pentanor-5,6,13,14-tetrahydro-9,11,15-trihydroxyprostanoyl}xylitol: Eyedrops containing the compound were administered once daily for 7 days. No drug was given on days 8 and 9. The animals were then treated once daily on days 10 through 14. IOP was assessed concurrently with drug administration.
1-O-{(9α,11α,15R)-15-[2-Benzo[b]thiophen-2-yl]-16,17,18,19,20-pentanor-5,6,13,14-tetrahydro-9,11,15-trihydroxyprostanoyl}-11-hydroxy-3,6,9-trioxaundecane: Eyedrops containing the compound were administered once daily for 5 days. The contralateral eye was left untreated to serve as a control. IOP was assessed concurrently with drug administration.
11-Hydroxy-3,6,9-trioxaundecyl 4-(2-phenylacryloyl)cinnamate: Eyedrops containing the compound were administered twice daily for 7 days. The contralateral eye was left untreated to serve as a control. IOP was assessed concurrently with drug administration.

intraocular pressure [3] = assay: Intraocular pressure lowering by ticrynafen-ribitol ester ointment in the Dutch Belted rabbit model (Example 3); type: in vivo; conditions: for Maximal pressure reduction: topical, doses at 0, 24 and 48 hours
Method: Ticrynafen-ribitol ester was formulated as an ointment in 5, 10, and 15% concentrations. The Dutch Belted rabbit model was used to test the formulation for both pressure lowering and side effects. Baseline intraocular pressures were obtained by placing one drop of proparacaine in each eye followed by pressure measurements utilizing a Pneumotonometer®. […] The second eye was used as a control with application of lanolin ointment without drug. Repeat doses were given at 24 hour intervals for a total of three doses (0, 24, and 48 hours). Intraocular pressures were recorded every 12 hours for one week. A total of twelve rabbits received the 5% ointment, eight rabbits the 10% ointment, and eight rabbits the 15% ointment. FIG. 4 presents the 10% data with statistically significant timepoints indicated by double asterisks.

[4] = Solubility in petrolatum/lanolin mixtures; type: physicochemical
intraocular pressure [5] = assay: Intraocular pressure lowering by 0.004% AR101 solution in the Dutch Belted rabbit model (Example 6); type: in vivo; conditions: 0.004% solution; loading dose 3 drops day 0 and 10, one drop daily days 1-7 and 10-14; versus contralateral control eye
Source text: The xylitol prostaglandin ester of Formula V (also called AR101) was formulated as a 0.004% solution for topical administration. The Dutch Belted Rabbit model was used to test the formulation for both pressure lowering and side effects. Baseline intraocular pressures were obtained by placing one drop of proparacaine in each eye followed by pressure measurements with a Pneumotonometer®. One eye of each rabbit received a loading dose of 3 drops 0.004% AR101 on day 0 and day 10. One drop of AR101 was given daily on days 1-7 and 10-14. No drug was given on days 8 and 9. The contralateral control eye received balanced salt solution drops without AR101. Intraocular pressure measurements were recorded every 12 hours for two weeks.

[6] = 0.3% mixed equimolar with cysteine in solution, twice daily for 7 days
[7] = 0.6% mixed equimolar with cysteine in solution, twice daily for 7 days
[8] = 10% in lanolin base, at 36 hours
[9] = 15% in lanolin base, at 60 hours
[10] = 0.004% in solution, once daily days 1-7 and 10-14
[11] = 0.004% in solution, once daily for 5 days
[12] = 0.02% in solution, once daily for 5 days

Method for pig liver esterase: Since the sugar alcohol moiety imparts water-solubility to the compounds, an assay can be readily set up to determine the optimal sugar alcohol for each drug moiety based on the release rate thus: A commercially-available preparation of esterase, such as porcine liver esterase (Sigma Corp., St. Louis), is prepared at a standard concentration. The drug-sugar alcohol combination, dissolved in methanol or a methanol-water or methanol-acetonitrile combination, is added dropwise to the esterase and the rate at which the compound is released from the alcohol is determined. The analytical technique used to determine the amount of free acid will vary with the acid used, but a typical procedure would be by TLC, or reverse-phase TLC, or HPLC or by Mass Spectroscopy. One skilled in the art can readily determine the optimal analytical method for each sugar-acid pair evaluated. This assay can easily be adapted to be run in a 96-well plate format, or other high-throughput method of determining activity.

Structure (SMILES): O=C(O)CCCCCC[C@@H]1[C@@H](CC[C@@H](O)c2cc3ccccc3s2)[C@H](O)C[C@@H]1O [Formula II]
- Activity against glaucoma, in words [1]: strong activity against glaucoma

Structure (SMILES): C=C(C(=O)c1ccc(C=CC(=O)OCCOCCOCCOCCO)cc1)c1ccccc1 [11-Hydroxy-3,6,9-trioxaundecyl 4-(2-phenylacryloyl)cinnamate]
- Maximum reduction from untreated control [2, 6]: −1.7 mmHg
- Maximum reduction from untreated control (percent) [2, 6]: 8%
- Maximum reduction from untreated control [2, 7]: −1.9 mmHg
- Maximum reduction from untreated control (percent) [2, 7]: 8%

Structure (SMILES): O=C(COc1ccc(C(=O)c2cccs2)c(Cl)c1Cl)OC[C@H](O)[C@H](O)[C@H](O)CO [Formula III, 5-O-Ribitol [2,3-dichloro-4-(thiophene-2-carbonyl)]phenoxyacetate]
- Maximal pressure reduction (intraocular pressure [3]; 5% ointment, maximum at 54 hours): 11%
- Maximal pressure reduction (intraocular pressure [3]; 10% ointment, maximum at 36 hours): 18%
- Maximal pressure reduction (intraocular pressure [3]; 15% ointment, maximum at 60 hours): 13%
- Reduction of intraocular pressure (IOP), in words (intraocular pressure [3]; Dutch-Belted white rabbits, petrolatum/lanolin ointment): reduces intraocular pressure (IOP) in a dose-dependent fashion
- Maximum reduction of IOP (absolute) [2, 8]: −4.3
- Maximum reduction of IOP (percent) [2, 8]: 18%
- Maximum reduction of IOP (absolute) [2, 9]: −3.0
- Maximum reduction of IOP (percent) [2, 9]: 13%
- Solubility in petrolatum/lanolin mixtures [4]: completely soluble

Structure (SMILES): O=C(O)COc1ccc(C(=O)c2cccs2)c(Cl)c1Cl [Formula IV, Ticrynafen]
- Activity against glaucoma, in words [1]: little or no activity

Structure (SMILES): O=C(CCCCCC[C@@H]1[C@@H](CC[C@@H](O)c2cc3ccccc3s2)[C@H](O)C[C@@H]1O)OC[C@@H](O)[C@H](O)[C@@H](O)CO [Formula V, 5-O-{(9α,11α,15R)-15-[2-Benzo[b]thiophen-2-yl]-16,17,18,19,20-pentanor-5,6,13,14-tetrahydro-9,11,15-trihydroxyprostanoyl}xylitol]
- Statistically significant pressure reductions between eyes (days) (intraocular pressure [5]): Statistically significant pressure reductions between eyes were observed on days 3, 7, and 11
- Significant reductions of IOP from baseline (days) [2, 10]: Significant reductions from baseline on days 2, 3, 5, 11, and 12
- Significant reductions of IOP from baseline and untreated control (days) [2, 10]: Significant reductions from baseline and untreated control on days 3, 5, and 11
- Hydrolysis by pig liver esterase (pig liver esterase): readily hydrolyzed

Structure (SMILES): O=C(CCCCCC[C@@H]1[C@@H](CCC(O)c2cc3ccccc3s2)[C@H](O)C[C@@H]1O)OCCOCCOCCOCCO (stereo partly drawn) [1-O-{(9α,11α,15R)-15-[2-Benzo[b]thiophen-2-yl]-16,17,18,19,20-pentanor-5,6,13,14-tetrahydro-9,11,15-trihydroxyprostanoyl}-11-hydroxy-3,6,9-trioxaundecane]
- Maximum reduction from untreated control [2, 11]: −2.8 mmHg
- Maximum reduction from untreated control (percent) [2, 11]: 12%
- Maximum reduction from untreated control [2, 12]: −3.0 mmHg
- Maximum reduction from untreated control (percent) [2, 12]: 17%

Structure (SMILES): C=C(C(=O)c1ccc(/C=C/C(=O)OC[C@@H](O)[C@H](O)[C@@H](O)CO)cc1)c1ccccc1 [Formula VIII, 5-O-Xylitol 4-(2-phenylacryloyl)cinnamate]
- Maximum reduction from untreated control [2, 6]: −2.4 mmHg
- Maximum reduction from untreated control (percent) [2, 6]: 11%
- Maximum reduction from untreated control [2, 7]: −2.4 mmHg
- Maximum reduction from untreated control (percent) [2, 7]: 13%
